# According to PMC7243443 (Journal of natural products, 2020):
# Tests used:
# [1] = tested on: small panel of human cancer cell lines; details: read-out: IC50, cytotoxicity against a small panel of human cancer cell lines; cited from earlier work
# ipsilateral kidney = details: 12–27 kg female dogs, renal-artery infusion, 0.05–0.08 mg/kg; cited from earlier work
# [2] = tested on: Na^+/K^+-ATPase (adenosine 5′-triphosphatase from porcine cerebral cortex); assay: Na+/K+-ATPase activity assay; format: biochemical; details: 7: at concentrations less than 100 μM
# [3] = tested on: glucose uptake in H1299 human lung cancer cells; assay: Glucose uptake assay; format: cell-based; details: 30 μM, 15 min
compound,measurement,setting,value
"C[C@H]1O[C@@H](O[C@H]2[C@@H](O)C[C@H](O[C@H]3[C@@H](O)C[C@H](O[C@H]4CC[C@@]5(C)[C@H](CC[C@@H]6[C@@H]5C[C@@H](O)[C@]5(C)[C@@H](C7=CC(=O)OC7)CC[C@]65O)C4)O[C@@H]3C)O[C@@H]2C)C[C@H](O)[C@@H]1O [compound 1, (+)-Digoxin]",IC50,[1],0.04 to 0.2 µM
same,"excretion of Ca2+, Mg2+, and PO4 3- by the ipsilateral kidney (in words)",ipsilateral kidney,enhanced
same,maximal transport of glucose (in words),ipsilateral kidney,no change in the maximal transport of glucose
same,inhibition of Na+/K+-ATPase activity (in words),[2],inhibited Na^+/K^+-ATPase activity in a concentration-dependent manner
same,inhibition of glucose uptake / glucose transport (in words),[3],did not inhibit glucose uptake
same,inhibition of glucose uptake / glucose transport (in words),[3]; listed as (+)-digoxin,did not inhibit glucose transport
